Entries after “also recorded” stand apart in the source; their conditions may differ.
What was measured:
[1] = tested on: cytokine expression in aneurysm-induced cerebral vasculature; assay: Mouse cytokine arrays (96 cytokines) of aneurysm-induced cerebral vasculature; assay type: in vivo, mouse (C57BL/6); conditions: treated aneurysmal mice vs PBS-treated aneurysmal mice or sham surgery controls; n=3 each
Experimental: Temporal analysis and comparison with pharmacologic treatment were performed.
Mouse cytokine Arrays. Raybiotech cytokine arrays C1000 (AAM-CYT-1000, Raybiotech, Peachtree Corners, GA) were used to analyze 96 cytokines in aneurysm-induced cerebral vasculature at 2 and 3 weeks (n=3 each) and compared with reparixin-, clopidogrel-treated animals, and with sham surgery animals as controls (n=2).

[2] = tested on: murine cerebral aneurysm model; assay: Mouse intracranial aneurysm model: aneurysm formation; assay type: in vivo, mouse (C57BL/6); conditions: controls 57%, n=6 and 7
Experimental: Mouse intracranial aneurysm model. Murine intracranial aneurysms were created in female 8-12 week-old C57BL/6 mice (Charles River Laboratories, Wilmington, MA) following established protocols. Briefly, the left common carotid artery and the right renal artery are ligated to induce hypertension. One week later, an Alzet micro-osmotic pump model 1004 (DURECT Corp, Cupertino, CA) was implanted subdermally to deliver Angiotensin II (Bachem AG, Switzerland) at 1000 ng/kg/min; and 10 μL of 0.8% porcine elastase (Worthington Biochemical Corp, Lakewood, NJ) in normal saline was injected into the right basal cistern using stereotactic coordinates: 1.2 mm rostral of bregma, 0.7 mm lateral of midline and 5.3 mm ventral of the dorsal aspect of the skull. The animals were fed a hypertensive diet with 8% NaCl and 0.12% BAPN (TEKLAD). PBS-treated animals received […] injection of phosphate buffered saline subcutaneously every two days. […] All animal experimentation was performed under the Institutional Animal Care and Use Committee-approved protocols of the University of Pittsburgh.

SMILES | effect on cytokine expression / inflammatory profile in aneurysmal mice (heatmap, FIG. 4A) [1] | aneurysm formation (mice that developed aneurysms) ([2]; 1 mg/kg clopidogrel, p<0.001) [%] | aneurysm formation (mice that developed aneurysms) ([2]; 10 mg/kg reparixin, p=0.0163) [%]
COC(=O)[C@H](c1ccccc1Cl)N1CCc2sccc2C1 [clopidogrel] | moderate response | 0 | –
CC(C)Cc1ccc([C@@H](C)C(=O)NS(C)(=O)=O)cc1 [reparixin] | vastly attenuated inflammatory profile; also recorded: robust anti-inflammatory effects | – | 14
